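Cultured in 96-well plates, cells were exposed to test compound for 48 hours across five concentrations. At the GI50, growth is halved. At the TGI there is no net growth.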
Assays:
Test in all cases: NCI anticancer screen, dose series, 48 h
[1] = system: SF-539 CNS
[2] = system: A549 NSCLC
[3] = system: UO-31 renal
[4] = system: NCI-H23 lung
[5] = system: EKVX NSCLC
[6] = system: DU-145 prostate
[7] = system: SK-OV-3 ovarian
[8] = system: CCRF-CEM leukemia
[9] = system: UACC-257 melanoma
[10] = system: MALME-3M melanoma
[11] = system: OVCAR-4 ovarian
[12] = system: HS 578T breast
[13] = system: OVCAR-5 ovarian
[14] = system: MOLT-4 leukemia
[15] = system: NCI-H226 lung
[16] = system: SF-268 CNS
[17] = system: SK-MEL-28 melanoma
[18] = system: UACC-62 melanoma
[19] = system: RXF 393 renal
[20] = system: K-562 leukemia
[21] = system: PC-3 prostate
[22] = system: BT-549 breast
[23] = system: CAKI-1 renal
[24] = system: A498 renal
[25] = system: MCF7 breast
[26] = system: LOX IMVI melanoma
[27] = system: SNB-19 CNS
[28] = system: OVCAR-8 ovarian
[29] = system: RPMI-8226 leukemia
[30] = system: HL-60(TB) leukemia
[31] = system: HOP-92 NSCLC
[32] = system: NCI/ADR-RES ovarian
[33] = system: SNB-75 CNS
[34] = system: HT29 colon
[35] = system: NCI-H522 lung
[36] = system: T-47D breast
[37] = system: MDA-MB-231 breast
[38] = system: U251 CNS
[39] = system: SK-MEL-5 melanoma
[40] = system: SW-620 colon
[41] = system: TK-10 renal
[42] = system: HOP-62 NSCLC
[43] = system: SR leukemia
[44] = system: OVCAR-3 ovarian
[45] = system: SF-295 CNS
[46] = system: IGROV1 ovarian
[47] = system: ACHN renal
[48] = system: NCI-H460 lung
[49] = system: 786-0 renal
[50] = system: SK-MEL-2 melanoma
[51] = system: COLO 205 colon
[52] = system: SN12C renal
[53] = system: HCT-15 colon
[54] = system: KM12 colon
[55] = system: MDA-MB-435
[56] = system: HCT-116 colon
[57] = system: M14 melanoma
[58] = system: HCC-2998 colon

O=Nc1c(-c2c(O)[nH]c3ccc(Br)cc23)[nH]c2ccccc12 gave a GI50 [1] of 2.62 µM, a TGI [1] of 7.47 µM and a GI50 [2] of 3.21 µM. For the same compound, the TGI [2] was > 100 µM, the GI50 [3] was 2.81 µM and the TGI [3] was > 100 µM. The GI50 [4] was 3.13 µM, the TGI [4] was 12.8 µM and the GI50 [5] was 3 µM. For the same compound, the TGI [5] was 15.5 µM, the GI50 [6] was 3.01 µM and the TGI [6] was 11.8 µM. It also gave a GI50 [7] of 5.22 µM, a TGI [7] of 77.3 µM and a GI50 [8] of 3.22 µM. The TGI [8] was 16.8 µM, the GI50 [9] was 15 µM and the TGI [9] was > 100 µM. For the same compound, the GI50 [10] was 21.8 µM, the TGI [10] was > 100 µM and the GI50 [11] was 5.94 µM. It also gave a TGI [11] of 74.4 µM, a GI50 [12] of 3.03 µM and a TGI [12] of 10.2 µM. For the same compound, the GI50 [13] was 5.14 µM, the TGI [13] was 16.9 µM and the GI50 [14] was 2.93 µM. It also gave a TGI [14] of 7.21 µM, a GI50 [15] of 3.89 µM and a TGI [15] of 16.7 µM. For the same compound, the GI50 [16] was 3.75 µM, the TGI [16] was 22.6 µM and the GI50 [17] was 9.12 µM. For the same compound, the TGI [17] was > 100 µM, the GI50 [18] was 4.96 µM and the TGI [18] was 15.1 µM. The GI50 [19] was 3.62 µM, the TGI [19] was > 100 µM and the GI50 [20] was 2 µM. It also gave a TGI [20] of 4.87 µM, a GI50 [21] of 3.38 µM and a TGI [21] of 78.9 µM. The GI50 [22] was 4.57 µM, the TGI [22] was 20.2 µM and the GI50 [23] was 3.44 µM. For the same compound, the TGI [23] was > 100 µM, the GI50 [24] was 3.7 µM and the TGI [24] was 8.07 µM. For the same compound, the GI50 [25] was 2.21 µM, the TGI [25] was 8.48 µM and the GI50 [26] was 2.18 µM. The TGI [26] was 11 µM, the GI50 [27] was 7.99 µM and the TGI [27] was > 100 µM. The GI50 [28] was 4.29 µM, the TGI [28] was > 100 µM and the GI50 [29] was 3.56 µM. The TGI [29] was 25.5 µM, the GI50 [30] was 3.38 µM and the TGI [30] was 6.22 µM. For the same compound, the GI50 [31] was 6.25 µM, the TGI [31] was 45.1 µM and the GI50 [32] was 4.24 µM. The TGI [32] was 63.4 µM, the GI50 [33] was 7.58 µM and the TGI [33] was 28.3 µM. The GI50 [34] was 8.3 µM, the TGI [34] was > 100 µM and the GI50 [35] was 3.35 µM. The TGI [35] was 47.6 µM, the GI50 [36] was 12.1 µM and the TGI [36] was > 100 µM. It also gave a GI50 [37] of 3.55 µM, a TGI [37] of 21.8 µM and a GI50 [38] of 4.83 µM. It also gave a TGI [38] of 23.1 µM, a GI50 [39] of 1.24 µM and a TGI [39] of 2.53 µM. The GI50 [40] was 3.64 µM, the TGI [40] was 9.41 µM and the GI50 [41] was 3.77 µM. The TGI [41] was > 100 µM, the GI50 [42] was 4.4 µM and the TGI [42] was 13.8 µM. It also gave a GI50 [43] of 2.12 µM, a TGI [43] of 5.62 µM and a GI50 [44] of 4.03 µM. It also gave a TGI [44] of 67.3 µM, a GI50 [45] of 9.8 µM and a TGI [45] of 54.1 µM. The GI50 [46] was 2.5 µM, the TGI [46] was > 100 µM and the GI50 [47] was 2.25 µM. It also gave a TGI [47] of 7.69 µM, a GI50 [48] of 2.4 µM and a TGI [48] of 5.99 µM. The GI50 [49] was 3.25 µM, the TGI [49] was 14.1 µM and the GI50 [50] was 2.65 µM. The TGI [50] was > 100 µM, the GI50 [51] was 2.82 µM and the TGI [51] was 13.9 µM. The GI50 [52] was 4.09 µM, the TGI [52] was > 100 µM and the GI50 [53] was 2.72 µM. For the same compound, the TGI [53] was 8.4 µM, the GI50 [54] was 1.14 µM and the TGI [54] was 5.2 µM. The GI50 [55] was 5.47 µM and the TGI [55] was > 100 µM.

In the case of NC(=S)NN=C1CSSC1, the GI50 [1] is reported as 2.75 µM, the TGI [1] is reported as 7.38 µM and the GI50 [2] is reported as 2.26 µM. It also gave a TGI [2] of 12.1 µM, a GI50 [3] of 1.83 µM and a TGI [3] of 20.1 µM. The GI50 [4] was 3.78 µM, the TGI [4] was 35.5 µM and the GI50 [6] was 4.12 µM. It also gave a TGI [6] of 16.2 µM, a GI50 [7] of 5.25 µM and a TGI [7] of 25.1 µM. The GI50 [8] was 3.77 µM, the TGI [8] was > 100 µM and the GI50 [9] was 1.93 µM. It also gave a TGI [9] of 17.8 µM, a GI50 [56] of 2.78 µM and a TGI [56] of 11.8 µM. It also gave a GI50 [10] of 3.67 µM, a TGI [10] of 28.8 µM and a GI50 [11] of 4.32 µM. It also gave a TGI [11] of 38.7 µM, a GI50 [12] of 3.49 µM and a TGI [12] of 40 µM. It also gave a GI50 [13] of 5.26 µM, a TGI [13] of 40.9 µM and a GI50 [14] of 3.75 µM. For the same compound, the TGI [14] was 43 µM, the GI50 [57] was 1.92 µM and the TGI [57] was 7.79 µM. For the same compound, the GI50 [15] was 1.66 µM, the TGI [15] was 14.5 µM and the GI50 [16] was 3.61 µM. It also gave a TGI [16] of 13.8 µM, a GI50 [17] of 4.67 µM and a TGI [17] of 25.9 µM. For the same compound, the GI50 [18] was 3.21 µM, the TGI [18] was 17.2 µM and the GI50 [19] was 1.45 µM. For the same compound, the TGI [19] was 5.58 µM, the GI50 [20] was 27 µM and the TGI [20] was > 100 µM. It also gave a GI50 [21] of 3.57 µM, a TGI [21] of 24.5 µM and a GI50 [22] of 3.37 µM. The TGI [22] was 10.1 µM, the GI50 [23] was 3.61 µM and the TGI [23] was 40.3 µM. The GI50 [24] was 1.95 µM, the TGI [24] was 6.03 µM and the GI50 [25] was 2.85 µM. For the same compound, the TGI [25] was 17.6 µM, the GI50 [27] was 2.46 µM and the TGI [27] was 11.4 µM. For the same compound, the GI50 [28] was 2.94 µM, the TGI [28] was 23.4 µM and the GI50 [29] was 11.4 µM. The TGI [29] was 55.6 µM, the GI50 [30] was 0.516 µM and the TGI [30] was 6.81 µM. It also gave a GI50 [58] of 6.74 µM, a TGI [58] of 40.3 µM and a GI50 [31] of 2.35 µM. For the same compound, the TGI [31] was 5.89 µM, the GI50 [32] was 4.11 µM and the TGI [32] was > 100 µM. It also gave a GI50 [34] of 2.31 µM, a TGI [34] of 8 µM and a GI50 [35] of 2.95 µM. It also gave a TGI [35] of 15.4 µM, a GI50 [36] of 4.31 µM and a TGI [36] of 29.1 µM. For the same compound, the GI50 [37] was 1.77 µM, the TGI [37] was 9.86 µM and the GI50 [38] was 3.66 µM. The TGI [38] was 23.1 µM, the GI50 [39] was 1.3 µM and the TGI [39] was 2.76 µM. The GI50 [40] was 8.06 µM, the TGI [40] was > 100 µM and the GI50 [41] was 2.73 µM. The TGI [41] was 7.62 µM, the GI50 [42] was 2.04 µM and the TGI [42] was 12.2 µM. For the same compound, the GI50 [43] was 2.79 µM, the TGI [43] was > 100 µM and the GI50 [44] was 2.54 µM. The TGI [44] was 10.5 µM, the GI50 [46] was 5 µM and the TGI [46] was 63.1 µM. It also gave a GI50 [47] of 3.05 µM, a TGI [47] of 31.7 µM and a GI50 [48] of 1.61 µM. It also gave a TGI [48] of 6.49 µM, a GI50 [49] of 11.9 µM and a TGI [49] of 72.5 µM. The GI50 [50] was 3.23 µM, the TGI [50] was 18.9 µM and the GI50 [51] was 2.4 µM. For the same compound, the TGI [51] was 5.67 µM, the GI50 [52] was 4.67 µM and the TGI [52] was > 100 µM. For the same compound, the GI50 [53] was 1.7 µM, the TGI [53] was 4.75 µM and the GI50 [54] was 5.92 µM. The TGI [54] was 23.5 µM, the GI50 [55] was 5.79 µM and the TGI [55] was 44.7 µM.
